Legend:
[1] = system: senescent myoblasts (11 cell passages); experiment: mitochondrial membrane potential (JC-1) by flow cytometry; format: cell-based, Human; details: vs control, p<0.05, FIG. 16
Protocol: Myoblast cell lines (Human Skeletal Muscle Myoblasts, Lonza CC-2580 LOT:0000387550) were cultured in SkBM™-2 Basal Media (Lonza CC-3246) including an SkGM™-2 SingleQuots™ Kit (Lonza CC-3244) on plates coated with Collagen Type I (Greiner Bio One, 658950) in a 5% CO2 incubator at 37° C. Subculture was initiated when the cells were approximately 85% confluent in plates. Early subcultures were performed at a split ratio of 1:4, and later subcultures were performed at a split ratio of 1:2. When cell doubling time was 14 days, the cells were regarded as senescent myoblasts (cell passages 10 to 12).
Senescent cells were seeded on each well of a 6-well plate coated with Collagen Type I (Greiner Bio One, 657950) in a concentration of 2,000 cells/well. Senescent myoblasts (passage 11) were cultured in the presence of 5 μM of Y-27632, 5 μM of FASUDIL, and 0.5 μM of SR3677 for 4 weeks in a 5% CO2 incubator at 37° C. The culture media were changed at every 4 days with new culture media supplemented with 5 μM of Y-27632, 5 μM of FASUDIL, and 0.5 μM of SR3677. A negative control group was prepared in the same manner, except that 0.05 (v/v) % of DMSO was used.
Mitochondrial membrane potentials were measured using a MitoProbe™ JC-1 Assay kit for Flow Cytometry (Life technologies, T3168) according to manufacturer's manuals. JC-1 is accumulated in mitochondria in a potential-dependent manner, and this accumulation is identified by fluorescence emission shift from green (about 529 nm) to red (about 590 nm). As a result, mitochondrial depolarization is identified by a decrease in a red/green fluorescence ratio. The mitochondrial membrane potentials were measured by excitation at 488 nm using a FACSCaliber (Beckton Dickinson) and using a flow cytometer by using 530/30 nm and 585/42 nm band pass filters. The results were analyzed using Cell Quest 3.2 software (Beckton Dickinson).

[2] = system: senescent fibroblasts (after 37 cell passages); experiment: cell cycle analysis (Muse Cell Cycle Kit); format: cell-based, human; details: 5 μM; 4 weeks; vs DMSO control; FIG. 4
Protocol: The senescent fibroblasts (after 37 cell passages) were cultured in culture media respectively supplemented with 5 μM of Y-27632 (A), 5 μM of FASUDIL (B), and 0.5 μM of SR3677 (C) for 4 weeks in a 5% CO2 incubator at 37° C. The culture media were changed with new culture media respectively supplemented with 5 μM of Y-27632, 5 μM of FASUDIL, and 0.5 μM of SR3677 at every 4 days. Cell cycles were measured using a Muse™ Cell Cycle Kit (MERCK Millipore, MCH100106) in accordance with manufacturer's manuals. Light having a wavelength of 488 nm was irradiated to the cells using a Muse™ Cell Analyzer (MERCK Millipore) and light emission at 520 nm was measured. The results were analyzed using Cell Quest 3.2 software (Beckton Dickinson). The control group was prepared in the same manner, except that 0.05 (v/v) % of DMSO was added thereto.

[3] = system: senescent fibroblasts (after 37 cell passages); experiment: microscopic observation of cell number and shape; format: cell-based, human; details: 5 μM, 4 weeks, FIG. 3
Protocol: In addition, after senescent fibroblasts (after 37 cell passages) were cultured in the same culture media and same conditions as described above in the presence of 0.05 (v/v) % of DMSO and Y-27632 (5 μM), shapes of the cells were observed using a microscope. FIG. 3 is a microscopic image illustrating cell shapes of senescent fibroblasts (after 37 cell passages) cultured in the presence of Y-27632 for 4 weeks.

[4] = system: full-thickness punch-biopsy wounds on the dorsal skin of old (19 months old) male C57BL/6J mice; experiment: cutaneous wound healing assay in aged mice; format: in vivo, mouse; details: 0.5 mL 10 μM in 30% Pluronic gel applied to wounds every day, FIG. 23
Protocol: To further test whether ROCK inhibitor can promote cutaneous wound healing in old (19 months old) male mice (C57BL/6J mice), four full-thickness punch-biopsy wounds (8 mm in diameter)(four wound sites/mouse, five mice/group) were created on the dorsal skin of mouse, 0.5 mL 10 μM Y-27632 in 30% Pluronic gel (Pluronic F-127 Sigma, P2443-1KG) was applied to wounds every day, and then covered the wounds with Telfa sponges (Kendall Health Care, Mansfield, Mass., USA). DMSO was used as a control. All animal studies were reviewed and approved by the […] Animal Care and Use Committee of SKKU School of Medicine (SUSM). SUSM is an Association for Assessment and Accreditation of Laboratory Animal Care international accredited facility and abides by the Institute for Laboratory Animal Research guide. Wounds were photographed for 10 days. Immunohistochemistry analyses were performed on 5 μm paraffin embedded sections as described previously (Lin et. al., 2004. Developmental Biology 270, 474-486). Primary antibodies used for immunohistochemistry were mouse anti-α-smooth muscle actin (Sigma, F3777-2ML, 1:500), and mouse anti-PCNA (Santa Cruz Biotechnology, SC-56, 1:500). Secondary antibodies used for immunohistochemistry were EnVisionTM Detection System (DAKO, […]). […]

O=S(=O)(c1cccc2cnccc12)N1CCCNCC1 [FASUDIL, 5-(1,4-diazepane-1-sulfonyl)isoquinoline]
action potentials of mitochondria (mitochondrial membrane potential) ([1]; 5 μM): significantly increased
number of cells in G0/G1 phases [2]: less than that of cells in S and G2/M phases

CN(C)CCOc1cc(-c2cn[nH]c2)ccc1NC(=O)C1COc2ccccc2O1 (stereo not drawn) [SR3677]
action potentials of mitochondria (mitochondrial membrane potential) ([1]; 0.5 μM): significantly increased

C[C@@H](N)[C@H]1CC[C@H](C(=O)Nc2ccncc2)CC1 [Y-27632, (1R,4R)-4-((R)-1-aminoethyl)-N-(pyridin-4-yl)cyclohexanecarboxamide]
action potentials of mitochondria (mitochondrial membrane potential) ([1]; 5 μM): significantly increased
number of cells in G0/G1 phases [2]: less than that of cells in S and G2/M phases
cell shape [3]: spindle shape generally found in young cells
numbers of cells ([3]; vs DMSO): greater than that of the control group
wound healing (wound appearance) ([4]; day 10, DMSO-treated wounds still showed remnants of scabs): near completion
wound healing process (wound size) ([4]; early points (days 3), vs DMSO, P<0.01): markedly accelerated

— US9943525B2, “Composition for reducing cell senescence comprising Rho-kinase inhibitor and use thereof” (Samsung Electronics Co., Ltd., priority 2014, dated 2018)
